Assay results: patent US20150038527A1, “FUROPYRIDINE DERIVATIVES” (Merck Patent GmbH, priority 2012, published 2015)
pIC50: −log10 of the molar value.

molecular target: T1, SYK (Homo sapiens, UniProt P43405); assay: SYK Flash Plate Assay (enzyme assay); assay type: biochemical
T1 construct: 2.5 nM SYK, 400 nM Biotin-Aha-Aha-KEDPDYEWPSAKK and 10 μM ATP
Description: The kinase assay is performed either as 384-well Flashplate assay (for e.g. Topcount measurement) or as 384-well Image-Flashplate assay (for LEADseeker measurement).
2.5 nM SYK, 400 nM Biotin-Aha-Aha-KEDPDYEWPSAKK and 10 μM ATP (spiked with 0.3 μCi 33P-ATP/well) are incubated in a total volume of 50 μl (60 mM Hepes, 10 mM MgCl2, 1.2 mM Dithiothreitol, 0.02% Brij35, 0.1% BSA, pH 7.5) with or without test compound for 1 hours at 30° C. The reaction is stopped with 25 μl 200 mM EDTA. After 30 Min at 30° C. the liquid is removed and each well washed thrice with 100 μl 0.9% sodium chloride solution. Non-specific reaction is determined in presence of 0.1 μM Staurosporine. Radioactivity is measured with Topcount (when using Flashplates) or with LEADseeker (when using Image-Flashplates) respectively. Results (e.g. IC50-values) are calculated with program tools provided by the IT-department (e.g. Symyx Assay Explorer, Genedata Screener).

Structure (SMILES) | pIC50
CCc1ccc(OC)cc1-c1cc2nccc(-c3ccc4[nH]cnc4c3)c2o1 [Compound A36, 7-(1H-benzoimidazol-5-yl)-2-(2-ethyl-5-methoxy-phenyl)-furo[3,2-b]pyridine] | 4.30 to 5.52
CCc1ccc(OC)c(-c2cc3nccc(-c4ccc5[nH]cnc5c4)c3o2)c1 [Compound A41, 7-(1H-benzoimidazol-5-yl)-2-(5-ethyl-2-methoxy-phenyl)-furo[3,2-b]pyridine] | 5.52 to 6.52
CCc1ccc(OC)cc1-c1cc2nccc(-c3cccc(C(=O)N[C@@H]4CCCC[C@@H]4N)c3)c2o1 [Compound A42, N-((1R,2S)-2-amino-cyclohexyl)-3-[2-(2-ethyl-5-methoxy-phenyl)-furo[3,2-b]pyridin-7-yl]-benzamide] | 4.30 to 5.52
CCc1ccc(OC)c(-c2cc3nccc(-c4cccc(C(=O)N[C@@H]5CCCC[C@@H]5N)c4)c3o2)c1 [Compound A43, N-((1R,2S)-2-amino-cyclohexyl)-3-[2-(5-ethyl-2-methoxy-phenyl)-furo[3,2-b]pyridin-7-yl]-benzamide] | 5.52 to 6.52
Cc1cc2[nH]ncc2cc1-c1cc2nccc(-c3cccc(C(=O)N[C@@H]4CCCC[C@@H]4N)c3)c2o1 [Compound A45, N-((1R,2S)-2-amino-cyclohexyl)-3-[2-(6-methyl-1H-indazol-5-yl)-furo[3,2-b]pyridin-7-yl]-benzamide] | 5.52 to 6.52
COc1ccc(C(N)=O)cc1-c1cc2nccc(-c3cccc(C(=O)N[C@@H]4CCCC[C@@H]4N)c3)c2o1 [Compound A46, 3-{7-[3-((1R,2S)-2-amino-cyclohexylcarbamoyl)-phenyl]-furo[3,2-b]pyridin-2-yl}-4-methoxy-benzamide] | 5.52 to 6.52
COc1cc(-c2cc3ncc(F)c(-c4cccc(C(=O)N[C@@H]5CCCC[C@@H]5N)c4)c3o2)cc(OC)c1OC [Compound A47, N-((1R,2S)-2-amino-cyclohexyl)-3-[6-fluoro-2-(3,4,5-trimethoxy-phenyl)furo[3,2-b]pyridin-7-yl]-benzamide] | 5.52 to 6.52
CCc1ccccc1-c1cc2nccc(-c3cccc(C(=O)N[C@@H]4CCCC[C@@H]4N)c3)c2o1 [Compound A49, N-((1R,2S)-2-amino-cyclohexyl)-3-[2-(2-ethyl-phenyl)-furo[3,2-b]pyridin-7-yl]-benzamide] | 4.30 to 5.52
Cc1ccc(S(N)(=O)=O)cc1-c1cc2nccc(-c3cccc(C(=O)N[C@@H]4CCCC[C@@H]4N)c3)c2o1 [Compound A50, N-((1R,2S)-2-amino-cyclohexyl)-3-[2-(2-methyl-5-sulfamoyl-phenyl)furo[3,2-b]pyridin-7-yl]-benzamide] | 5.52 to 6.52
COc1ccc(OCCN)cc1-c1cc2nccc(-c3cccc(C(=O)N[C@@H]4CCCC[C@@H]4N)c3)c2o1 [Compound A51, N-((1R,2S)-2-amino-cyclohexyl)-3-{2-[5-(2-amino-ethoxy)-2-methoxy-phenyl]-furo[3,2-b]pyridin-7-yl}-benzamide] | 5.52 to 6.52
Cc1cc(OCCN)ccc1-c1cc2nccc(-c3cccc(C(=O)N[C@@H]4CCCC[C@@H]4N)c3)c2o1 [Compound A52, N-((1R,2S)-2-amino-cyclohexyl)-3-{2-[4-(2-amino-ethoxy)-2-methyl-phenyl]-furo[3,2-b]pyridin-7-yl}-benzamide] | 5.52 to 6.52
COc1ccc(C(N)=O)cc1-c1cc2nccc(-c3cnc(F)cc3C)c2o1 [Compound A54, 3-[7-(6-fluoro-4-methyl-pyridin-3-yl)-furo[3,2-b]pyridin-2-yl]-4-methoxybenzamide] | 4.30 to 5.52
N[C@H]1CCCC[C@H]1NC(=O)c1cccc(-c2ccnc3cc(-c4cccc5c4OCO5)oc23)c1 [Compound A60, N-((1R,2S)-2-amino-cyclohexyl)-3-(2-benzo[1,3]dioxol-4-yl-furo[3,2-b]pyridin-7-yl)-benzamide] | 5.52 to 6.52
COc1ccc(C(N)=O)cc1-c1cc2nccc(-c3c(OC)cccc3OC)c2o1 [Compound A62, 3-[7-(2,6-dimethoxy-phenyl)-furo[3,2-b]pyridin-2-yl]-4-methoxy-benzamide] | 5.52 to 6.52
CCn1cc(-c2ccnc3cc(-c4cc(C(N)=O)ccc4OC)oc23)cn1 [Compound A63, 3-[7-(1-ethyl-1H-pyrazol-4-yl)-furo[3,2-b]pyridin-2-yl]-4-methoxy-benzamide] | 5.52 to 6.52

Second part, the compound after the results:

pIC50 | Structure (SMILES)
4.30 to 5.52 | COc1cc(-c2cc3nccc(-c4cccc(C(=O)N[C@@H]5CCCC[C@@H]5NC(C)=O)c4)c3o2)cc(OC)c1OC [Compound A34, N-((1R,2S)-2-acetylamino-cyclohexyl)-3-[2-(3,4,5-trimethoxy-phenyl)furo[3,2-b]pyridin-7-yl]-benzamide]
5.52 to 6.52 | COc1cc(-c2cc3nccc(-c4cc(F)cc(C(=O)N[C@@H]5CCCC[C@@H]5N)c4)c3o2)cc(OC)c1OC [Compound A35, N-((1R,2S)-2-amino-cyclohexyl)-3-fluoro-5-[2-(3,4,5-trimethoxy-phenyl)furo[3,2-b]pyridin-7-yl]-benzamide]
5.52 to 6.52 | COc1cc(-c2cc3nccc(-c4ccc5c(c4)[nH]c(=O)n5CCN)c3o2)cc(OC)c1OC [Compound A37, 1-(2-amino-ethyl)-5-[2-(3,4,5-trimethoxy-phenyl)-furo[3,2-b]pyridin-7-yl]-1,3-dihydro-benzoimidazol-2-one]
5.52 to 6.52 | COc1cc(-c2cc3nccc(-c4ccc(O)nc4)c3o2)cc(OC)c1OC [Compound A38, 5-[2-(3,4,5-trimethoxy-phenyl)-furo[3,2-b]pyridin-7-yl]-pyridin-2-ol]
5.52 to 6.52 | COc1cc(-c2cc3nccc(-c4ccnc(O)c4)c3o2)cc(OC)c1OC [Compound A39, 4-[2-(3,4,5-trimethoxy-phenyl)-furo[3,2-b]pyridin-7-yl]-pyridin-2-ol]
5.52 to 6.52 | COc1cc(-c2cc3nccc(-c4cccc(C(=O)NC(C)(C)CO)c4)c3o2)cc(OC)c1OC [Compound A40, N-(2-hydroxy-1,1-dimethyl-ethyl)-3-[2-(3,4,5-trimethoxy-phenyl)-furo[3,2-b]pyridin-7-yl]-benzamide]
5.52 to 6.52 | COc1cc(-c2cc3nccc(-c4cc(OCCN)ccc4F)c3o2)cc(OC)c1OC [Compound A44, 2-{4-fluoro-3-[2-(3,4,5-trimethoxy-phenyl)-furo[3,2-b]pyridin-7-yl]-phenoxy}-ethylamine]
5.52 to 6.52 | COc1cc(-c2cc3nccc(-c4cc(C(=O)N[C@@H]5CCCC[C@@H]5N)ccc4F)c3o2)cc(OC)c1OC [Compound A48, N-((1R,2S)-2-mino-cyclohexyl)-4-fluoro-3-[2-(3,4,5-trimethoxy-phenyl)furo[3,2-b]pyridin-7-yl]-benzamide]
4.30 to 5.52 | COc1cc(-c2cc3nccc(N4CCNCC4)c3o2)cc(OC)c1OC [Compound A53, 7-piperazin-1-yl-2-(3,4,5-trimethoxy-phenyl)-furo[3,2-b]pyridine]
6.52 to 7.00 | COc1cc(-c2cc3nccc(-c4cc(F)cc(C(=O)NCCN)c4)c3o2)cc(OC)c1OC [Compound A55, N-(2-amino-ethyl)-3-fluoro-5-[2-(3,4,5-trimethoxy-phenyl)-furo[3,2-b]pyridin-7-yl]-benzamide]
5.52 to 6.52 | COc1cc(-c2cc3nccc(-c4cc(C)cc(C(=O)NCCN)c4)c3o2)cc(OC)c1OC [Compound A56, N-(2-amino-ethyl)-3-methyl-5-[2-(3,4,5-trimethoxy-phenyl)-furo[3,2-b]pyridin-7-yl]-benzamide]
5.52 to 6.52 | COc1cc(-c2cc3nccc(-c4cc(C)cc(C(=O)NCCCN)c4)c3o2)cc(OC)c1OC [Compound A57, N-(3-amino-propyl)-3-methyl-5-[2-(3,4,5-trimethoxy-phenyl)-furo[3,2-b]pyridin-7-yl]-benzamide]
5.52 to 6.52 | COc1ccc(C(=O)NCCCN)cc1-c1ccnc2cc(-c3cc(OC)c(OC)c(OC)c3)oc12 [Compound A58, N-(3-amino-propyl)-4-methoxy-3-[2-(3,4,5-trimethoxy-phenyl)-furo[3,2-b]pyridin-7-yl]-benzamide]
4.30 to 5.52 | COc1cc(-c2cc3ncc(-c4cn[nH]c4)cc3o2)cc(OC)c1OC [Compound A59, 6-(1H-pyrazol-4-yl)-2-(3,4,5-trimethoxy-phenyl)-furo[3,2-b]pyridine]
4.30 to 5.52 | COc1cc(-c2cc3nccc(-c4cc(F)cc(C(=O)NCCCN)c4)c3o2)cc(OC)c1OC [Compound A61, N-(3-amino-propyl)-3-fluoro-5-[2-(3,4,5-trimethoxy-phenyl)-furo[3,2-b]pyridin-7-yl]-benzamide]
5.52 to 6.52 | COc1cc(-c2cc3nccc(-c4cccc(C(=O)N[C@@H]5C[C@@H]5N)c4)c3o2)cc(OC)c1OC [Compound A64, N-((1R,2S)-2-amino-cyclopropyl)-3-[2-(3,4,5-trimethoxy-phenyl)-furo[3,2-b]pyridin-7-yl]-benzamide]
4.30 to 5.52 | COc1cc(-c2cc3nccc(-c4ccc(N(C)C)cc4)c3o2)cc(OC)c1OC [Compound A65, dimethyl-{4-[2-(3,4,5-trimethoxy-phenyl)-furo[3,2-b]pyridin-7-yl]-phenyl}-amine]
5.52 to 6.52 | COc1ccc(C(=O)O)cc1-c1cc2nccc(-c3c(OC)cccc3OC)c2o1 [Compound A66, 3-[7-(2,6-dimethoxy-phenyl)-furo[3,2-b]pyridin-2-yl]-4-methoxy-benzoic acid]
4.30 to 5.52 | COc1cc(-c2cc3nccc(-c4cccc(C(=O)N[C@@H]5COC[C@@H]5N)c4)c3o2)cc(OC)c1OC [Compound A67, N-((3S,4R)-4-amino-tetrahydro-furan-3-yl)-3-[2-(3,4,5-trimethoxy-phenyl)furo[3,2-b]pyridin-7-yl]-benzamide]
